Measurements from ChEMBL document CHEMBL1156794, “Synthesis and antimicrobial evaluation of amphiphilic neamine derivatives” (J Med Chem, 2010).
In brackets after ≈: the same amount, converted by molar mass.

Legend:
[1] = tested on: Staphylococcus aureus; test: Antibacterial activity against aminoglycoside-6'-N-acetyltransferase/2''-O-phosphoryltransferase expressing Staphylococcus aureus after 24 hrs by geometric microdilution method; type: functional
[2] = tested on: Staphylococcus aureus; test: Antibacterial activity against Staphylococcus aureus ATCC 25923 after 24 hrs by geometric microdilution method; type: functional; conditions: ATCC 25923, 24 h
[3] = tested on: Staphylococcus aureus; test: Antibacterial activity against aminoglycoside-3'-O-phosphoryltransferase expressing Staphylococcus aureus after 24 hrs by geometric microdilution method; type: functional
[4] = tested on: Staphylococcus aureus; test: Antibacterial activity against NorA pump expressing Staphylococcus aureus after 24 hrs by geometric microdilution method; type: functional
[5] = tested on: Staphylococcus aureus; test: Antibacterial activity against aminoglycoside-4'-O-phosphoryltransferase expressing Staphylococcus aureus after 24 hrs by geometric microdilution method; type: functional
[6] = tested on: Staphylococcus aureus; test: Antibacterial activity against MsrA pump expressing Staphylococcus aureus after 24 hrs by geometric microdilution method; type: functional
[7] = tested on: Acinetobacter lwoffii; test: microbe, parasite or virus in culture; conditions: ATCC 17925, 24 h
Description: Antibacterial activity against Acinetobacter lwoffii ATCC 17925 after 24 hrs by geometric microdilution method

[8] = tested on: Klebsiella pneumoniae; test: Antibacterial activity against Klebsiella pneumoniae ATCC 700603 after 24 hrs by geometric microdilution method; type: functional; conditions: ATCC 700603, 24 h
[9] = tested on: Acinetobacter lwoffii; test: Antibacterial activity against […] expressing Acinetobacter lwoffii AI.88-483 after 24 hrs by geometric microdilution method; type: functional; conditions: AI.88-483, 24 h
[10] = tested on: Escherichia coli; test: Antibacterial activity against AAC6'-2b expressing Escherichia coli PAZ505H8101 after 24 hrs by geometric microdilution method; type: functional; conditions: PAZ505H8101, 24 h
[11] = tested on: Escherichia coli; test: microbe, parasite or virus in culture; conditions: ATCC 25922, 24 h
Description: Antibacterial activity against Escherichia coli ATCC 25922 after 24 hrs by geometric microdilution method

[12] = tested on: Staphylococcus aureus; test: Antibacterial activity against methicillin-resistant Staphylococcus aureus ATCC 33592 clinical isolate after 24 hrs by geometric microdilution method; type: functional; conditions: ATCC 33592, 24 h
[13] = tested on: Escherichia coli; test: Antibacterial activity against ANT2'-2a expressing Escherichia coli L58058.1 after 24 hrs by geometric microdilution method; type: functional; conditions: L58058.1, 24 h
[14] = tested on: Pseudomonas aeruginosa; test: Antibacterial activity against MexAB expressing Pseudomonas aeruginosa PA21 after 24 hrs by geometric microdilution method; type: functional; conditions: PA21, 24 h
[15] = tested on: Pseudomonas aeruginosa; test: Antibacterial activity against Pseudomonas aeruginosa PAO1 after 24 hrs by geometric microdilution method; type: functional; conditions: PAO1, 24 h
[16] = tested on: Pseudomonas aeruginosa; test: Antibacterial activity against MexXY expressing Pseudomonas aeruginosa PA22 after 24 hrs by geometric microdilution method; type: functional; conditions: PA22, 24 h
[17] = tested on: Pseudomonas aeruginosa; test: Antibacterial activity against MexAB, MexCD, MexEF, MexXY, TriABC deleted Pseudomonas aeruginosa PA406 after 24 hrs by geometric microdilution method; type: functional; conditions: PA406, 24 h
[18] = tested on: Staphylococcus aureus; test: Antibacterial activity against vancomycin-resistant Staphylococcus aureus VRS-2 after 24 hrs by geometric microdilution method; type: functional; conditions: VRS-2, 24 h
[19] = tested on: Pseudomonas aeruginosa; test: Antibacterial activity against Pseudomonas aeruginosa ATCC 27853 after 24 hrs by geometric microdilution method; type: functional; conditions: ATCC 27853, 24 h
[20] = tested on: Pseudomonas aeruginosa; test: Antibacterial activity against MexCD expressing Pseudomonas aeruginosa PA01 after 24 hrs by geometric microdilution method; type: functional; conditions: PA01, 24 h
[21] = tested on: Pseudomonas aeruginosa; test: Antibacterial activity against MexXY expressing Pseudomonas aeruginosa PT629 after 24 hrs by geometric microdilution method; type: functional; conditions: PT629, 24 h
[22] = tested on: Pseudomonas aeruginosa; test: Antibacterial activity against TriABC expressing MexAB, MexCD, MexEF, MexXY deleted Pseudomonas aeruginosa PA405 after 24 hrs by geometric microdilution method; type: functional; conditions: PA405, 24 h
[23] = tested on: Pseudomonas aeruginosa; test: Antibacterial activity against MexEF expressing Pseudomonas aeruginosa PA03 after 24 hrs by geometric microdilution method; type: functional; conditions: PA03, 24 h
[24] = tested on: Pseudomonas aeruginosa; test: Antibacterial activity against AAC6'-2a expressing Pseudomonas aeruginosa F03 after 24 hrs by geometric microdilution method; type: functional; conditions: F03, 24 h

Row | SMILES | MIC [1] [µg/mL] | MIC [2] [µg/mL] | MIC [3] [µg/mL] | MIC [4] [µg/mL] | MIC [5] [µg/mL] | MIC [6] [µg/mL] | MIC [8] [µg/mL] | MIC [9] [µg/mL] | MIC [10] [µg/mL] | MIC [12] [µg/mL] | MIC [13] [µg/mL] | MIC [14] [µg/mL] | MIC [15] [µg/mL] | MIC [16] [µg/mL] | MIC [17] [µg/mL] | MIC [19] [µg/mL] | MIC [20] [µg/mL] | MIC [21] [µg/mL] | MIC [22] [µg/mL] | MIC [23] [µg/mL] | further results
1 | NC[C@H]1O[C@H](O[C@H]2[C@H](O)[C@@H](OCc3ccccn3)[C@H](N)C[C@@H]2N)[C@H](N)[C@@H](OCc2ccccn2)[C@@H]1OCc1ccccn1 | > 128 | > 128 | > 128 | > 128 | > 128 | > 128 | – | – | – | – | – | – | – | – | – | – | – | – | – | – | –
2 | NC[C@H]1O[C@H](O[C@H]2[C@H](O)[C@@H](O)[C@H](N)C[C@@H]2N)[C@H](N)[C@@H](O)[C@@H]1OCc1ccc2ccccc2c1 | > 128 | > 128 | > 128 | > 128 | > 128 | > 128 | – | – | – | – | – | – | – | – | – | – | – | – | – | – | –
3 | NC[C@H]1O[C@H](O[C@H]2[C@H](O)[C@@H](O)[C@H](N)C[C@@H]2N)[C@H](N)[C@@H](O)[C@@H]1O [NEAMINE] | 16 (≈ 49.6 µM) | 32 (≈ 99.3 µM) | > 128 | 32 (≈ 99.3 µM) | > 128 | 16 (≈ 49.6 µM) | 32 (≈ 99.3 µM) | > 128 | > 128 | > 128 | 32 (≈ 99.3 µM) | > 128 | > 128 | > 128 | 128 (≈ 397 µM) | > 128 | > 128 | > 128 | 128 (≈ 397 µM) | > 128 | MIC [7]: 2 µg/mL (≈ 6.2 µM); MIC [11]: 32 µg/mL (≈ 99.3 µM); MIC [18]: > 128 µg/mL; MIC [24]: > 128 µg/mL
4 | NC[C@H]1O[C@H](O[C@H]2[C@H](O)[C@@H](OCc3ccccc3)[C@H](N)C[C@@H]2N)[C@H](N)[C@@H](OCc2ccccc2)[C@@H]1OCc1ccccc1 | > 128 | > 128 | > 128 | > 128 | > 128 | > 128 | > 128 | > 128 | > 128 | > 128 | > 128 | > 128 | > 128 | > 128 | 64 (≈ 108 µM) | > 128 | > 128 | > 128 | 64 (≈ 108 µM) | > 128 | MIC [7]: 128 µg/mL (≈ 216 µM); MIC [11]: > 128 µg/mL; MIC [18]: 64 µg/mL (≈ 108 µM); MIC [24]: > 128 µg/mL
5 | NC[C@H]1O[C@H](O[C@H]2[C@H](O)[C@@H](OCc3ccc4ccccc4n3)[C@H](N)C[C@@H]2N)[C@H](N)[C@@H](OCc2ccc3ccccc3n2)[C@@H]1OCc1ccc2ccccc2n1 | 128 (≈ 172 µM) | 128 (≈ 172 µM) | 64 (≈ 85.8 µM) | > 128 | > 128 | > 128 | > 128 | > 128 | > 128 | 64 (≈ 85.8 µM) | > 128 | > 128 | > 128 | > 128 | 64 (≈ 85.8 µM) | > 128 | > 128 | > 128 | 64 (≈ 85.8 µM) | > 128 | MIC [7]: 128 µg/mL (≈ 172 µM); MIC [11]: > 128 µg/mL; MIC [18]: 64 µg/mL (≈ 85.8 µM); MIC [24]: > 128 µg/mL
6 | NC[C@H]1O[C@H](O[C@H]2[C@H](O)[C@@H](O)[C@H](N)C[C@@H]2N)[C@H](N)[C@@H](OCc2ccc3ccccc3c2)[C@@H]1OCc1ccc2ccccc2c1 | 8 (≈ 13.3 µM) | 4 (≈ 6.64 µM) | 4 (≈ 6.64 µM) | 8 (≈ 13.3 µM) | 8 (≈ 13.3 µM) | 8 (≈ 13.3 µM) | > 128 | > 128 | 16 (≈ 26.5 µM) | 8 (≈ 13.3 µM) | 16 (≈ 26.5 µM) | 64 (≈ 106 µM) | 64 (≈ 106 µM) | > 128 | 8 (≈ 13.3 µM) | 32 (≈ 53.1 µM) | 16 (≈ 26.5 µM) | > 128 | 8 (≈ 13.3 µM) | 8 (≈ 13.3 µM) | MIC [7]: 8 µg/mL (≈ 13.3 µM); MIC [11]: 32 µg/mL (≈ 53.1 µM); MIC [18]: 4 µg/mL (≈ 6.64 µM); MIC [24]: > 128 µg/mL
7 | NC[C@H]1O[C@H](O[C@H]2[C@H](O)[C@@H](OCc3ccc4ccccc4c3)[C@H](N)C[C@@H]2N)[C@H](N)[C@@H](O)[C@@H]1O | > 128 | > 128 | > 128 | > 128 | > 128 | > 128 | – | – | – | > 128 | – | – | – | – | – | – | – | – | – | – | –
8 | NC[C@H]1O[C@H](O[C@H]2[C@H](O)[C@@H](O)[C@H](N)C[C@@H]2N)[C@H](N)[C@@H](OCc2ccc3ccccc3c2)[C@@H]1O | > 128 | > 128 | 128 (≈ 277 µM) | > 128 | > 128 | > 128 | – | – | – | – | – | – | – | – | – | – | – | – | – | – | –
9 | NC[C@H]1O[C@H](O[C@H]2[C@H](OCc3ccc4ccccc4c3)[C@@H](OCc3ccc4ccccc4c3)[C@H](N)C[C@@H]2N)[C@H](N)[C@@H](OCc2ccc3ccccc3c2)[C@@H]1OCc1ccc2ccccc2c1 | – | – | – | – | – | – | 128 (≈ 145 µM) | > 128 | 64 (≈ 72.5 µM) | – | 64 (≈ 72.5 µM) | 64 (≈ 72.5 µM) | 64 (≈ 72.5 µM) | 64 (≈ 72.5 µM) | 64 (≈ 72.5 µM) | 64 (≈ 72.5 µM) | 64 (≈ 72.5 µM) | 64 (≈ 72.5 µM) | 64 (≈ 72.5 µM) | 64 (≈ 72.5 µM) | MIC [24]: 64 µg/mL (≈ 72.5 µM)
10 | NC[C@H]1O[C@H](O[C@H]2[C@H](O)[C@@H](OCc3ccc4ccccc4n3)[C@H](N)C[C@@H]2N)[C@H](N)[C@@H](OCc2ccc3ccccc3n2)[C@@H]1O | > 128 | > 128 | > 128 | > 128 | > 128 | > 128 | – | – | – | – | – | – | – | – | – | – | – | – | – | – | –
11 | NC[C@H]1O[C@H](O[C@H]2[C@H](O)[C@@H](OCc3ccccc3)[C@H](N)C[C@@H]2N)[C@H](N)[C@@H](OCc2ccccc2)[C@@H]1O | > 128 | > 128 | > 128 | > 128 | > 128 | > 128 | – | – | – | – | – | – | – | – | – | – | – | – | – | – | –
12 | NC[C@H]1O[C@H](O[C@H]2[C@H](OCc3ccc4ccccc4c3)[C@@H](O)[C@H](N)C[C@@H]2N)[C@H](N)[C@@H](O)[C@@H]1O | > 128 | > 128 | > 128 | > 128 | > 128 | > 128 | – | – | – | – | – | – | – | – | – | – | – | – | – | – | –
13 | NC[C@H]1O[C@H](O[C@H]2[C@H](O)[C@@H](OCc3ccccn3)[C@H](N)C[C@@H]2N)[C@H](N)[C@@H](OCc2ccccn2)[C@@H]1O | > 128 | > 128 | > 128 | > 128 | > 128 | > 128 | – | – | – | – | – | – | – | – | – | – | – | – | – | – | –
